Measurements from PubChem BioAssay (NCI).
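Protocol summary: plate cells (96-well), add compound at 5 concentrations, incubate 48 h, interpolate endpoints linearly. GI50: concentration for 50% inhibition of growth. TGI is the concentration that stops growth completely.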

What was measured:
Test in all cases: NCI tumour cell line growth inhibition, 48 h
NCI/ADR-RES ovarian = test system: NCI/ADR-RES ovarian
BT-549 breast = test system: BT-549 breast
MDA-MB-231 breast = test system: MDA-MB-231 breast
KM20L2 colon = test system: KM20L2 colon
XF 498 CNS = test system: XF 498 CNS
HOP-18 NSCLC = test system: HOP-18 NSCLC
RXF-631 renal = test system: RXF-631 renal
DMS 114 small cell lung = test system: DMS 114 small cell lung
MDA-N = test system: MDA-N

`CCCCCCCCn1ccc2cc(NC(=O)Cn3cc(CN4CCCC4)nn3)ccc21` gave a GI50 (NCI/ADR-RES ovarian) of 2.08 µM, a TGI (NCI/ADR-RES ovarian) of 4.49 µM and a GI50 (BT-549 breast) of 1.65 µM. For the same compound, the TGI (BT-549 breast) was 3.39 µM, the GI50 (MDA-MB-231 breast) was 1.84 µM and the TGI (MDA-MB-231 breast) was 3.49 µM.

`O=c1cc(-c2ccccc2)oc2cc(OC/C(=N/O)c3ccccc3)ccc12` was tested, and the GI50 (NCI/ADR-RES ovarian) was 19.8 µM, the TGI (NCI/ADR-RES ovarian) was greater than 50 µM and the GI50 (BT-549 breast) was 12.4 µM. For the same compound, the TGI (BT-549 breast) was 27.8 µM, the GI50 (MDA-MB-231 breast) was 6.98 µM and the TGI (MDA-MB-231 breast) was 23.9 µM.

Work on `COc1ccc(-c2nc(-c3nc4ccc(Cl)cc4[nH]3)c3ccccn23)cc1` yielded a GI50 (NCI/ADR-RES ovarian) of 2.78 µM, a TGI (NCI/ADR-RES ovarian) of 9.2 µM and a GI50 (BT-549 breast) of 2.74 µM. The TGI (BT-549 breast) was 6.63 µM, the GI50 (MDA-MB-231 breast) was 2.77 µM and the TGI (MDA-MB-231 breast) was 7.75 µM.

`COc1cc(Nc2nc3ccccc3nc2-c2cccs2)cc(OC)c1OC` showed a TGI (KM20L2 colon) greater than 100 µM, a TGI (XF 498 CNS) of 76.6 µM and a TGI (HOP-18 NSCLC) greater than 100 µM.

`O=C(O)CCNC1CCCCC1` gave a GI50 (NCI/ADR-RES ovarian) greater than 100 µM, a TGI (NCI/ADR-RES ovarian) greater than 100 µM and a GI50 (BT-549 breast) greater than 100 µM. The TGI (BT-549 breast) was greater than 100 µM, the GI50 (MDA-MB-231 breast) was greater than 100 µM and the TGI (MDA-MB-231 breast) was greater than 100 µM.

`Cc1ccc2c(c1)Sc1c(ccc3ccccc13)N2` was tested, and the GI50 (NCI/ADR-RES ovarian) was 41.9 µM, the TGI (NCI/ADR-RES ovarian) was greater than 100 µM and the GI50 (BT-549 breast) was 28.5 µM. It also gave a TGI (BT-549 breast) greater than 100 µM, a GI50 (MDA-MB-231 breast) of 42.1 µM and a TGI (MDA-MB-231 breast) greater than 100 µM.

In the case of `O=C(CCc1nnc2sc(-c3ccc(Cl)cc3Cl)nn12)c1nc2ccccc2[nH]1`, the GI50 (NCI/ADR-RES ovarian) is reported as 1.42 µM, the TGI (NCI/ADR-RES ovarian) is reported as 6.15 µM and the GI50 (BT-549 breast) is reported as 2.14 µM. It also gave a TGI (BT-549 breast) of 4.99 µM, a GI50 (MDA-MB-231 breast) of 0.746 µM and a TGI (MDA-MB-231 breast) of 2.21 µM.

For `CCOC(=O)/C(C#N)=C/c1[nH]c(C(=O)OCc2ccccc2)c(C)c1C`, the TGI (RXF-631 renal) was greater than 100 µM, the TGI (DMS 114 small cell lung) was greater than 100 µM and the TGI (KM20L2 colon) was greater than 100 µM. The TGI (HOP-18 NSCLC) was greater than 100 µM.

With `O=C(Nc1ccc(-c2nc(N3CCOCC3)c3cccn3n2)cc1)Nc1cccnc1` the GI50 (NCI/ADR-RES ovarian) was 0.393 µM, the TGI (NCI/ADR-RES ovarian) was 6.27 µM and the GI50 (BT-549 breast) was 0.145 µM. The TGI (BT-549 breast) was 0.951 µM.

`CC1CN1C(=O)NCCCCCCNC(=O)N1CC1C` (stereo not drawn) was tested, and the TGI (MDA-N) was greater than 100 µM, the TGI (DMS 114 small cell lung) was 98.3 µM and the TGI (KM20L2 colon) was greater than 100 µM. It also gave a TGI (XF 498 CNS) greater than 100 µM, a TGI (NCI/ADR-RES ovarian) greater than 100 µM and a TGI (HOP-18 NSCLC) greater than 100 µM. The TGI (BT-549 breast) was greater than 100 µM and the TGI (MDA-MB-231 breast) was greater than 100 µM.

For `O=C(CC1(O)C(=O)Nc2ccccc21)c1ccncc1` (stereo not drawn), the TGI (DMS 114 small cell lung) was greater than 100 µM and the TGI (KM20L2 colon) was greater than 100 µM.

With `O=C1c2ccccc2C(=O)N1CCc1ncc[nH]1` the TGI (MDA-N) was greater than 100 µM and the TGI (NCI/ADR-RES ovarian) was greater than 100 µM.

For `CCCCCCCC[C@@H](O)CC(=O)N[C@@H](CC(N)=O)C(=O)N[C@@H](CCC(N)=O)C(=O)N[C@@H](CC(=O)c1cc(C)cc(O)c1C(=O)c1c(O)cccc1O)CC(C)C`, the GI50 (NCI/ADR-RES ovarian) was 39.6 µM, the TGI (NCI/ADR-RES ovarian) was greater than 100 µM and the GI50 (BT-549 breast) was 0.296 µM. The TGI (BT-549 breast) was 2.25 µM, the GI50 (MDA-MB-231 breast) was 0.678 µM and the TGI (MDA-MB-231 breast) was 68.3 µM.

Work on `C/C(CC(=O)Nc1cc(C)ccc1C)=N\NC(=O)c1ccncc1` yielded a TGI (RXF-631 renal) greater than 100 µM and a TGI (KM20L2 colon) greater than 100 µM.

In the case of `O=C(O)c1nn(-c2ccccc2-c2n[nH]c(=O)[nH]c2=O)c(=O)[nH]c1=O`, the TGI (MDA-N) is reported as greater than 100 µM, the TGI (NCI/ADR-RES ovarian) is reported as greater than 100 µM and the TGI (BT-549 breast) is reported as greater than 100 µM. For the same compound, the TGI (MDA-MB-231 breast) was greater than 100 µM.

With `Cc1ccc(C(=O)NC(C)C)cc1-c1ccc(C(=O)NCC2CC2)cc1` the GI50 (NCI/ADR-RES ovarian) was greater than 25 µM, the TGI (NCI/ADR-RES ovarian) was greater than 25 µM and the GI50 (BT-549 breast) was greater than 25 µM. For the same compound, the TGI (BT-549 breast) was greater than 25 µM, the GI50 (MDA-MB-231 breast) was greater than 25 µM and the TGI (MDA-MB-231 breast) was greater than 25 µM.

For `CCCC1N2CCCCC2[C@@H]2c3[nH]c4ccccc4c3CCN12` (stereo partly drawn), the TGI (DMS 114 small cell lung) was greater than 100 µM, the TGI (KM20L2 colon) was greater than 100 µM and the TGI (XF 498 CNS) was greater than 100 µM. The TGI (HOP-18 NSCLC) was greater than 100 µM.

`Nc1nccc(-c2c(-c3ccc(F)cc3)ncn2C2CCC(O)CC2)n1` (stereo not drawn) showed a GI50 (NCI/ADR-RES ovarian) greater than 18 µM, a TGI (NCI/ADR-RES ovarian) greater than 25 µM and a GI50 (BT-549 breast) of 11.7 µM. It also gave a TGI (BT-549 breast) greater than 25 µM, a GI50 (MDA-MB-231 breast) of 14.5 µM and a TGI (MDA-MB-231 breast) greater than 25 µM.

With `O=C(CCc1cc(-c2ccccc2)nc(=S)[nH]1)N(Cc1ccccc1)Cc1ccccc1` the TGI (DMS 114 small cell lung) was greater than 100 µM, the TGI (KM20L2 colon) was greater than 100 µM and the TGI (XF 498 CNS) was greater than 100 µM. For the same compound, the TGI (HOP-18 NSCLC) was greater than 100 µM.

`CCOC(=S)SSSC(=S)OCC` gave a TGI (MDA-N) greater than 100 µM, a TGI (NCI/ADR-RES ovarian) greater than 100 µM and a TGI (MDA-MB-231 breast) greater than 100 µM.

In the case of `COCCCNC(=O)C1C(=O)C(=O)N(CCCOC)C1=O` (stereo not drawn), the TGI (RXF-631 renal) is reported as greater than 100 µM, the TGI (DMS 114 small cell lung) is reported as greater than 100 µM and the TGI (KM20L2 colon) is reported as greater than 100 µM. It also gave a TGI (HOP-18 NSCLC) greater than 100 µM.

Work on `CS(=O)(=O)c1ccc(-n2nc(C(F)(F)F)cc2OC2CCCC2)cc1` yielded a GI50 (NCI/ADR-RES ovarian) of 25 µM, a TGI (NCI/ADR-RES ovarian) of 81.8 µM and a GI50 (BT-549 breast) of 28.5 µM. The TGI (BT-549 breast) was 73 µM, the GI50 (MDA-MB-231 breast) was 26 µM and the TGI (MDA-MB-231 breast) was 71.2 µM.

For `NC(=O)NS(=O)(=O)c1ccc(N2N=C(C(F)(F)F)CC2c2cc(C(F)(F)F)cc(C(F)(F)F)c2)cc1` (stereo not drawn), the GI50 (NCI/ADR-RES ovarian) was 6.95 µM, the TGI (NCI/ADR-RES ovarian) was 21.6 µM and the GI50 (BT-549 breast) was 4.28 µM. For the same compound, the TGI (BT-549 breast) was 16.5 µM, the GI50 (MDA-MB-231 breast) was 10.2 µM and the TGI (MDA-MB-231 breast) was 22.7 µM.

`COc1ccc(C(=O)C#Cc2cnc(OC)nc2OC)cc1` gave a TGI (MDA-N) of 3.89 µM, a TGI (NCI/ADR-RES ovarian) of 79000 µM and a GI50 (BT-549 breast) of 25400 µM. The TGI (MDA-MB-231 breast) was 86700 µM.

Compound `N#CC(C#N)=C1Nc2ccccc2S1` has a GI50 (NCI/ADR-RES ovarian) of 23.8 µM, a TGI (NCI/ADR-RES ovarian) of 69.5 µM and a GI50 (MDA-MB-231 breast) of 43.4 µM. It also gave a TGI (MDA-MB-231 breast) greater than 100 µM.

`COc1ccc(-c2onc(N)c2-c2cc(OC)c3c(c2)OCO3)cc1` showed a GI50 (NCI/ADR-RES ovarian) of 0.947 µM, a TGI (NCI/ADR-RES ovarian) greater than 21.8 µM and a GI50 (BT-549 breast) of 2.64 µM. The TGI (BT-549 breast) was greater than 100 µM, the GI50 (MDA-MB-231 breast) was 3.4 µM and the TGI (MDA-MB-231 breast) was 65.8 µM.

With `O=C(O)C(=Cc1ccc(-c2ccccc2)cc1)C(=O)O` the TGI (MDA-N) was greater than 100 µM, the TGI (NCI/ADR-RES ovarian) was greater than 94 µM and the TGI (BT-549 breast) was 29.4 µM. For the same compound, the TGI (MDA-MB-231 breast) was 38.5 µM.

Work on `C#CCNC(=O)c1cccc2c1cc(C)n2-c1nc2c(c(NCc3ccccc3)n1)CCCC2` yielded a GI50 (NCI/ADR-RES ovarian) of 0.0281 µM, a TGI (NCI/ADR-RES ovarian) of 0.101 µM and a GI50 (BT-549 breast) of 0.0265 µM. The TGI (BT-549 breast) was 0.0643 µM, the GI50 (MDA-MB-231 breast) was 0.0216 µM and the TGI (MDA-MB-231 breast) was 0.0546 µM.

`COC(=O)Nc1nc2ccc(Oc3ccc(NC(=O)Nc4cc(C(F)(F)F)ccc4F)cc3)cc2s1` was tested, and the GI50 (NCI/ADR-RES ovarian) was 14.5 µM, the TGI (NCI/ADR-RES ovarian) was greater than 25 µM and the GI50 (BT-549 breast) was greater than 25 µM. The TGI (BT-549 breast) was greater than 25 µM, the GI50 (MDA-MB-231 breast) was 9.05 µM and the TGI (MDA-MB-231 breast) was greater than 25 µM.

`CC1(C)OC2=C(CC1Br)C(=O)C(=O)c1ccccc12` (stereo not drawn) was tested, and the GI50 (NCI/ADR-RES ovarian) was 2.26 µM, the TGI (NCI/ADR-RES ovarian) was 5.22 µM and the GI50 (BT-549 breast) was 1.85 µM. It also gave a TGI (BT-549 breast) of 3.34 µM, a GI50 (MDA-MB-231 breast) of 2.35 µM and a TGI (MDA-MB-231 breast) of 6.42 µM.

With `Cc1cc(-c2cnn3c(NCC4CC(C)(O)C4)cc(Oc4cccnc4)nc23)ccc1C(=O)NC1CC1` (stereo not drawn) the GI50 (NCI/ADR-RES ovarian) was greater than 100 µM, the TGI (NCI/ADR-RES ovarian) was greater than 100 µM and the GI50 (BT-549 breast) was greater than 100 µM. For the same compound, the TGI (BT-549 breast) was greater than 100 µM, the GI50 (MDA-MB-231 breast) was 3.39 µM and the TGI (MDA-MB-231 breast) was greater than 100 µM.

`O=C(O)/C=C(\c1nc2ccc([N+](=O)[O-])cc2[nH]1)c1cc(Cl)ccc1O` was tested, and the GI50 (NCI/ADR-RES ovarian) was 2.71 µM, the TGI (NCI/ADR-RES ovarian) was greater than 100 µM and the GI50 (BT-549 breast) was 2.3 µM. For the same compound, the TGI (BT-549 breast) was 7.25 µM, the GI50 (MDA-MB-231 breast) was 2.11 µM and the TGI (MDA-MB-231 breast) was 9.25 µM.
